Where a name gives a salt, the structure may show the parent alone. Read-outs that look alike come from different tables or passages of the source.
Tests used:
Test in all cases: cells
[1] = system: Molm13; parameters: species or system Jurkat FADD-/-, HT-29, MV4-11 or Molm13; protection from induced necroptosis, cell death by PI staining and flow cytometry; conditions: Homo sapiens, MOLM-13; BV6 + zVAD; inhibition of induced cell death
Method: Figure 2 Sorafenib inhibits TNF-induced RIPK1-dependent cell death in both murine and human cell lines and rescues AML cells from Smac mimetic-induced necroptosis. […] (c,d) HT-29 and Jurkat FADD−/− cells were pretreated for 1 h with DMSO, Nec-1 or Sorafenib (concentrations as indicated) and stimulated for 6 h with 30 ng/ml hTNF, 1 μM BV6 and 30 μM zVAD (HT-29) or stimulated for 10 h with 100 ng/ml hTNF (Jurkat FADD−/−). (a-d) Data were normalized to DMSO-treated control cells and represent the mean value±S.E.M. of three independent experiments. Toxic concentrations were removed from the analysis. L929sAhFas and MEF cells were stained with Hoechst and PI and percentage PI-positive nuclei was determined using high-content image analysis (BD pathway Bioimager). For HT-29 and Jurkat FADD−/− cells, cell death was determined by PI staining and flow cytometry. […] Cell death in AML cells was determined by PI staining and flow cytometry. Mean and S.D. of three independent experiments performed in triplicate are shown Supplementary materials and methods Immunoblotting. After treatments, cells were washed twice with PBS and lysed with Laemmli buffer (2x) directly or with NP-40 lysis buffer (150 mM NaCl, 1% NP-40, 10% glycerol, 10 mM Tris-HCl pH 8) supplemented with EDTA-free protease inhibitor cocktail tablets (Roche Diagnostics, Basel, Switzerland, #11873580001) and phosphatase inhibitor cocktail tablets (Roche Diagnostics, #04906837001). After lysis with NP-40 lysis buffer, lysates were kept 10 minutes on ice and centrifugated in a microcentrifuge (10 min, 13.000 rpm, 4°C). Supernatant was used for SDS-PAGE and immunoblotting. FACS analysis. FACS analysis was used to measure dying HT-29, Jurkat FADD-/- and AML cells. Treated HT-29 cells were harvested, washed with PBS and incubated with Annexin V binding buffer (BD Biosciences, 556454) containing 7-AAD and Annexin V-FITC for 15 min according to the manufacturer’s protocol. FACSCalibur^TM Flow Cytometer (BD Biosciences) and CellQuest Pro software were used to perform experiments and analyze data respectively.

[2] = system: MEF; parameters: species or system L929sAhFas or MEF; protection from TNF-induced cell death, percentage PI-positive nuclei by high-content imaging; conditions: Mus musculus, mTNF + BV6, inhibition of induced cell death
Method: (c,d) HT-29 and Jurkat FADD−/− cells were pretreated for 1 h with DMSO, Nec-1 or Sorafenib (concentrations as indicated) and stimulated for 6 h with 30 ng/ml hTNF, 1 μM BV6 and 30 μM zVAD (HT-29) or stimulated for 10 h with 100 ng/ml hTNF (Jurkat FADD−/−). (a-d) Data were normalized to DMSO-treated control cells and represent the mean value±S.E.M. of three independent experiments. Toxic concentrations were removed from the analysis. L929sAhFas and MEF cells were stained with Hoechst and PI and percentage PI-positive nuclei was determined using high-content image analysis (BD pathway Bioimager). For HT-29 and Jurkat FADD−/− cells, cell death was determined by PI staining and flow cytometry. […] Cell death in AML cells was determined by PI staining and flow cytometry. […] Smac mimetic BV6[34] instead of TAK1i was used as a sensitizer for testing of mouse embryonic fibroblasts (MEF) and human cell lines. […] Since Sorafenib is used to treat AML,[27] we also included two AML cell lines to investigate whether it alters the sensitivity of these cells to necroptotic stimuli (BV6 in the presence of zVAD-fmk).[34]

[3] = system: L929sAhFas; parameters: high-content necroptosis screen, percentage PI-positive nuclei as percent of DMSO plus stimulus control
Source text: To identify novel inhibitors or regulators of necroptosis, 500 small compounds from libraries targeting autophagy, kinases, phosphatases, proteases and redox balance were screened for their ability to block TNF-induced necroptosis in murine L929sAhFas cells. Three conditions were used to induce necroptosis in L929 cells: TNF alone, TNF+TAK1 inhibitor (TAK1i) and TNF+zVAD-fmk, a pan-caspase inhibitor. Inhibition of TAK1 or caspases sensitizes to necroptosis.[13], [32] Necroptosis, measured as the percentage of PI-positive nuclei normalized to the plate-specific DMSO control, was determined for each compound (Supplementary Figure 1A). […] After compound treatment, L929sAhFas (a) or L929 (b) cells were stimulated with mTNF (T), mTNF+Tak1i (TiT) or mTNF+zVAD (zVT) (Supplementary Figure 1A and B). (a) Cell death percentage (% PI-positive nuclei) or cell loss was calculated as percent of control (DMSO+stimulus). […] (b) Cell loss (luminescence-based readout for ATP) was calculated as percent of control (DMSO+stimulus). […] In stimulated conditions, % PI-positive nuclei was determined as % of DMSO control. Data represent mean values±S.E.M. of two independent experiments. Cells were stained with Hoechst and PI and percentage PI-positive nuclei was determined using high-content image analysis (BD pathway Bioimager). (d) L929sAhFas cells were treated with Sorafenib (concentration as indicated) for 24 h. Then, stimulus was removed, 50 cells/condition seeded and colonies counted with crystal violet staining after 10 days incubation. […] Schemes of workflow screening assays in L929 cell lines. (A) Scheme of the workflow of a high-content screening assay on L929sAhFas cells using mTNF (T) and mTNF+Tak1i ((5Z)-7-Oxozeaenol) (TiT) to induce necroptotic cell death. Nec-1 and zVAD-fmk were used as protective and sensitizing benchmarks, respectively, on all plates. (B) Scheme of the workflow of a CellTiter-Glo luminescent cell viability screening assay on L929 cells using mTNF+zVAD (zVT) to induce necroptotic cell death. Supplementary Figure S2. Z’ calculation for cell death screening assays in L929 cells. (A) Z’ calculation for cell death screening assay (Fig. 1A) in mTNF-stimulated L929sAhFas cells. (B) Z’ calculation for cell death screening assay (Fig. 1A) in L929sAhFas cells stimulated with mTNF + Taki.

CNC(=O)c1cc(Oc2ccc(NC(=O)Nc3ccc(Cl)c(C(F)(F)F)c3)cc2)ccn1 [Sorafenib tosylate]
IC50 [1]: ≤ 30 nM | IC50 [2]: 2200 ± 470 nM | activity at 10 µM ([3]; read-out: cell death TNF (POC)): 41.5% | activity at 10 µM ([3]; read-out: cell death TNF/Taki (POC)): 11.8%

— article PMC5520944 (Cell Death & Disease, 2017)
